# Measured values published in publication PMC8138767, “Intrinsically disordered substrates dictate SPOP subnuclear localization and ubiquitination activity” (The Journal of Biological Chemistry, 2021).
# Columns and labels:
# [1] = In vitro phase separation of Pdx1; type: physicochemical
# [2] = tested on: SPOP-dependent turnover in T-REx-293 cells; assay: SPOP-dependent Pdx1 stability (Western blot); type: cell-based; details: no MG132, harvested 28 h after transfection, Western blot (Fig. S3D)
# Experimental: In a similar experiment, the cells were not treated with a proteasome inhibitor to observe the SPOP-dependent stability of each Pdx1 variant.
# T-REx-293 cells (Invitrogen) were seeded at a density of 0.8 × 10^6 per well in 6-well plates (tissue culture–treated plates (cat. no 3516, Corning)). After 24 h, cells were transfected with plasmids encoding Pdx1–GFP, SPOP–myc, His–ubiquitin, HA–Rbx1, and myc–CUL3 (as indicated) using the Qiagen Effectene transfection reagent. 24 h after transfection, the cells were treated with either dimethyl sulfoxide or 20 μM MG132 for 4 h before being harvested. Cells were lysed in buffer A (6 M guanidine HCl, 100 mM sodium phosphate, pH 8.0, and 10 mM imidazole). The lysates were sonicated, cleared, and incubated with Ni-NTA Agarose (Qiagen) for 3 h at RT, followed by 16 h at 4 °C. The beads were washed twice with buffer A and twice with a buffer composed of 1:3 buffer A:buffer T1 (buffer T1: 25 mM Tris HCl, pH 8.0, and 20 mM imidazole). The beads were finally transferred to buffer T1 and then boiled in the SDS-PAGE loading buffer containing 300 mM imidazole. Pdx1 stability assays were performed as described above, except that the cells were not treated with MG132. Cells expressing Pdx1–GFP or a variant were harvested 28 h after transfection, resuspended in 2x SDS-loading dye, and boiled for 5 min before SDS-PAGE analysis.
# All proteins were resolved by SDS-PAGE. Separated proteins were analyzed by immunoblotting using either the ECL or the ECL Select Western blotting detection reagents (Amersham). The antibodies used were mouse anti-Pdx1 used at 1:500 for pulldown or 1:2000 for inputs (clone 26771, MAB2419, R&D Systems), mouse anti-myc (1:250, clone 9E10, Santa Cruz Biotechnology), and rabbit anti-GAPDH (1:8000, clone EPR1689, Abcam). horseradish peroxidase-conjugated secondary antibodies were sourced from Jackson ImmunoResearch Laboratories and used at 1:20,000 dilution (goat anti-rabbit IgG, 111-035-003 and goat anti-mouse, 115-035-003).
substance,measurement,setting,value
Pdx1: full-length human Pdx1 (amino acids 1-283) with a C-terminal GFP tag,in vitro phase separation,[1],do not observe in vitro phase separation
same,SPOP-dependent Pdx1 stability,[2]; listed as Pdx1-GFP-WT,almost entirely degraded
same,SPOP-dependent Pdx1 stability,[2]; listed as Pdx1–WT,readily degraded
